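48-hour exposure; five concentrations; linearly interpolated endpoints. The concentration for full growth arrest is given as TGI.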
Legend:
Test in all cases: DTP human tumour cell line panel, 48 h
786-0 renal = system: 786-0 renal
A498 renal = system: A498 renal
A549 NSCLC = system: A549 NSCLC
ACHN renal = system: ACHN renal
CAKI-1 renal = system: CAKI-1 renal
CCRF-CEM leukemia = system: CCRF-CEM leukemia
COLO 205 colon = system: COLO 205 colon
DLD-1 colon = system: DLD-1 colon
DMS 114 small cell lung = system: DMS 114 small cell lung
DMS 273 small cell lung = system: DMS 273 small cell lung
EKVX NSCLC = system: EKVX NSCLC
HCC-2998 colon = system: HCC-2998 colon
HCT-116 colon = system: HCT-116 colon
HCT-15 colon = system: HCT-15 colon
HOP-18 NSCLC = system: HOP-18 NSCLC
HOP-62 NSCLC = system: HOP-62 NSCLC
HOP-92 NSCLC = system: HOP-92 NSCLC
HT29 colon = system: HT29 colon
IGROV1 ovarian = system: IGROV1 ovarian
K-562 leukemia = system: K-562 leukemia
KM12 colon = system: KM12 colon
KM20L2 colon = system: KM20L2 colon
LOX IMVI melanoma = system: LOX IMVI melanoma
LXFL 529 NSCLC = system: LXFL 529 NSCLC
M14 melanoma = system: M14 melanoma
M19-MEL melanoma = system: M19-MEL melanoma
MALME-3M melanoma = system: MALME-3M melanoma
MOLT-4 leukemia = system: MOLT-4 leukemia
NCI-H23 lung = system: NCI-H23 lung
NCI-H460 lung = system: NCI-H460 lung
NCI-H522 lung = system: NCI-H522 lung
OVCAR-3 ovarian = system: OVCAR-3 ovarian
OVCAR-4 ovarian = system: OVCAR-4 ovarian
OVCAR-5 ovarian = system: OVCAR-5 ovarian
OVCAR-8 ovarian = system: OVCAR-8 ovarian
RPMI-8226 leukemia = system: RPMI-8226 leukemia
RXF 393 renal = system: RXF 393 renal
SF-268 CNS = system: SF-268 CNS
SF-295 CNS = system: SF-295 CNS
SK-MEL-2 melanoma = system: SK-MEL-2 melanoma
SK-MEL-28 melanoma = system: SK-MEL-28 melanoma
SK-MEL-5 melanoma = system: SK-MEL-5 melanoma
SK-OV-3 ovarian = system: SK-OV-3 ovarian
SN12C renal = system: SN12C renal
SNB-19 CNS = system: SNB-19 CNS
SNB-75 CNS = system: SNB-75 CNS
SR leukemia = system: SR leukemia
SW-620 colon = system: SW-620 colon
TK-10 renal = system: TK-10 renal
U251 CNS = system: U251 CNS
UACC-257 melanoma = system: UACC-257 melanoma
UACC-62 melanoma = system: UACC-62 melanoma
UO-31 renal = system: UO-31 renal
XF 498 CNS = system: XF 498 CNS
HL-60(TB) leukemia = system: HL-60(TB) leukemia

Measured: TGI

CCOC(=O)C(=O)/C=C(\C)Nc1c(NC2OCC(OC(C)=O)C(OC(C)=O)C2OC(C)=O)nc(SC)[nH]c1=O (stereo not drawn)
> 100 µM: 786-0 renal | A498 renal | A549 NSCLC | ACHN renal | CAKI-1 renal | CCRF-CEM leukemia | COLO 205 colon | DLD-1 colon | DMS 114 small cell lung | DMS 273 small cell lung | EKVX NSCLC | HCC-2998 colon | HCT-116 colon | HCT-15 colon | HOP-18 NSCLC | HOP-62 NSCLC | HOP-92 NSCLC | HT29 colon | IGROV1 ovarian | K-562 leukemia | KM12 colon | KM20L2 colon | LOX IMVI melanoma | LXFL 529 NSCLC | M14 melanoma | M19-MEL melanoma | MALME-3M melanoma | MOLT-4 leukemia | NCI-H23 lung | NCI-H460 lung | NCI-H522 lung | OVCAR-3 ovarian | OVCAR-4 ovarian | OVCAR-5 ovarian | OVCAR-8 ovarian | RPMI-8226 leukemia | RXF 393 renal | SF-268 CNS | SF-295 CNS | SK-MEL-2 melanoma | SK-MEL-28 melanoma | SK-MEL-5 melanoma | SK-OV-3 ovarian | SN12C renal | SNB-19 CNS | SNB-75 CNS | SR leukemia | SW-620 colon | TK-10 renal | U251 CNS | UACC-257 melanoma | UACC-62 melanoma | UO-31 renal | XF 498 CNS

CCOC(=O)N1C=NC23C(c4ccccc4)C(c4ccccc4)C12C(=O)N(C)C(=O)N3C (stereo not drawn)
> 100 µM: 786-0 renal | A498 renal | A549 NSCLC | ACHN renal | CAKI-1 renal | CCRF-CEM leukemia | COLO 205 colon | DLD-1 colon | DMS 273 small cell lung | EKVX NSCLC | HCC-2998 colon | HCT-116 colon | HCT-15 colon | HL-60(TB) leukemia | HOP-18 NSCLC | HOP-62 NSCLC | HOP-92 NSCLC | HT29 colon | IGROV1 ovarian | K-562 leukemia | KM12 colon | KM20L2 colon | LOX IMVI melanoma | LXFL 529 NSCLC | M14 melanoma | M19-MEL melanoma | MALME-3M melanoma | MOLT-4 leukemia | NCI-H23 lung | NCI-H460 lung | NCI-H522 lung | OVCAR-3 ovarian | OVCAR-4 ovarian | OVCAR-5 ovarian | OVCAR-8 ovarian | RPMI-8226 leukemia | RXF 393 renal | SF-268 CNS | SF-295 CNS | SK-MEL-2 melanoma | SK-MEL-28 melanoma | SK-MEL-5 melanoma | SK-OV-3 ovarian | SN12C renal | SNB-19 CNS | SNB-75 CNS | SR leukemia | SW-620 colon | TK-10 renal | U251 CNS | UACC-257 melanoma | UACC-62 melanoma | UO-31 renal | XF 498 CNS

— PubChem BioAssay (NCI)
